Paper PMC6033896, “Discovery of Mcl-1 inhibitors from integrated high throughput and virtual screening” (Scientific Reports, 2018)
Values joined by “and” are separate entries in the source; they are usually repeats but may differ in a detail not shown here. Equal values may be shown once. “Also recorded” adds a separate entry of the source.

What was measured:
Mcl-1 protein [1] = target: T1, Mcl-1 protein (Homo sapiens, UniProt Q07820); assay: SPR-based solution competitive binding assay, immobilized biotin-labelled Bim BH3 peptide; conditions: Mcl-1 20 nM; competition with immobilized Bim BH3 peptide
T1 construct: human Mcl-1 (residues 171–323); His tag (pHis-TEV vector) (N, cleaved yes); made in house; host or cells: E. coli BL21 (DE3)
T1 sequence (Q07820 171-323): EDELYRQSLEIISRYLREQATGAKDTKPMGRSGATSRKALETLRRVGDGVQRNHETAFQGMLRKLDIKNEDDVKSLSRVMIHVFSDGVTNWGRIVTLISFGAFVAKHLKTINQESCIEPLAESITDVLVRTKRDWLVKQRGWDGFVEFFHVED
Protocol: The solution competitive SPR-based assay was performed on Biacore 2000 in a similar way as was already reported. Briefly, N terminal biotin-labelled Bim BH3 peptide (141–166 amino acids) was immobilized on streptavidin (SA) chip giving a density of 800 RU (Response Units). The pre-incubated Mcl-1 protein (20 nM) with tested small-molecule inhibitors for at least 30 min was injected over the surfaces of the chip using assay buffer HBS-P (GE, #BR100368). Response units were measured at 15 s in the dissociation phase, and IC50 values were determined by nonlinear least-squares analysis using GraphPad Prism 6.0 software.

endogenous Mcl-1 = target: T2, endogenous Mcl-1 (Homo sapiens, UniProt Q07820); assay: Biotin-streptavidin pulldown with BL-Noxa, 2LMP whole cell lysate; assay type: binding
T2 construct: endogenous in cells; host or cells: 2LMP (subclone of MDA-MB-231), whole cell lysate
T2 sequence (Q07820 whole entry): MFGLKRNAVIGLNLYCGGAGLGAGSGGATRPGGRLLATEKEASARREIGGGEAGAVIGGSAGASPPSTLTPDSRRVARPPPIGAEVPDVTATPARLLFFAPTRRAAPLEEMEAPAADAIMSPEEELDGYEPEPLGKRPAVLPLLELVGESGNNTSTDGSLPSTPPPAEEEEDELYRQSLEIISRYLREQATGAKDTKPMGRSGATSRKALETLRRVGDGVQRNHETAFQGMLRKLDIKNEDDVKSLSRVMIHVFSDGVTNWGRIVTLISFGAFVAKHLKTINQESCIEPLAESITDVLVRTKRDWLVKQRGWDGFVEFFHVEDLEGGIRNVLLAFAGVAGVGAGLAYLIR
Protocol: 2LMP cells, a subclone of MDA-MB-231, were harvested (~15 × 10^6) and lysed via sonication with CHAPS buffer (10 mM HEPES pH 7.4, 2.5 mM EDTA, 150 mM NaCl, 1% (w/v) CHAPS, pH 7.4). […] Protein-peptide complexes were pulled down with agarose beads for 2 hrs. Beads were washed with CHAPS buffer and Mcl-1 protein was eluted by boiling in SDS-PAGE loading dye. Samples were analysed by western blotting with the Mcl-1 antibody (Thermo Scientific #MS-681-P1).

Mcl-1 protein [2] = target: T1, Mcl-1 protein; assay: FP-based competitive binding assay with fluorescent labelled Bid BH3 peptide; conditions: for Ki: calculated from FP IC50; for IC50: competition with fluorescent Bid probe 2 nM, 20 nM Mcl-1 for purchased compounds, 10 nM for synthesized library
Protocol: FP-based binding assays were developed and optimized to determine the binding affinities of inhibitors to the recombinant Mcl-1, Bcl-2, Bcl-xL, and Bfl-1, proteins. […] The fluorescent Bid probe was fixed at 2 nM for all assays, except for Bfl-1, where 1 nM was used. 5 μL of the tested compound in DMSO and 120 μL of protein/probe complex in the assay buffer were added to assay plates (Corning #3792), incubated at room temperature for 3 h, and the polarization values (mP) were measured at an excitation wavelength of 485 nm and an emission wavelength of 530 nm using the plate reader Synergy H1 Hybrid, BioTek. IC50 values were determined by nonlinear regression fitting of the competition curves (GraphPad Prism 6.0 Software). The Ki values were calculated as described previously.
1. List of compounds purchased from vendors
Compound s 5, 6, 7, 8 and S3, S4, S5, S6 S7, S8, S9, S10, S17 were purchased from […]
Compound s 9, 10, 11 and S11, S12, S13 were purchased from I nterbioscreen […]
His-tagged proteins containing human Mcl-1 (residues 171–323), the isoform 2 construct of the human Bcl-2 [Bcl2-2 construct for protein production starts with the Bcl2 sequence of 1-34 a a, followed by the Bcl-xL seq uence of 35-50 aa, and ends with the Bcl-2 sequenc e of 92-202aa.], Bcl-xL (Human Bcl-xL protein, which has an internal deletion for the 45 -85 amino acid residues and a C -terminal truncation for the amino acid residues 212-233), and Bf l-1 (residues 1-151), were expres sed from the pHis -TEV vector (a modified pET vector) in E. coli BL21 (DE3) cells. Cells were grown at 37 °C in 2×YT containing antibiotics to an OD600 density of 1.5, 1 and 0.8 for Mcl-1, Bcl-xL and Bcl-2 respectively. Protein expression wa s induced by 0 .4 mM IPTG at 20 °C overnight for all proteins except for Bf l-1 which was e xpressed at 3 7 °C for four hours . Cells were lysed in 20 mM HEPES pH 7.5, 200 mM NaCl, 0.1% βME with Leupeptin/Aprotinin (Mcl-1), 25mM Tris pH 8.5, 200mM NaCl (Bcl-2), 50mM Tris pH 7.5, 200 mM NaCl (Bcl-xL) and 50 mM Tris pH 8, 500 mM NaCl, 0. 1% βME with Leupeptin/Aprotinin (Bf l-1). All […]
proteins were purified from the soluble fraction using Ni-NTA resin (QIAGEN), following the manufacturer’s instructions. For purification of TEV-cleaved protein, the amino-terminal His tag was cleaved by incubation with TEV protease and the protein was further purified by anion exchange (Source Q) and gel filtration chromatography (Superdex 75, Amersham Biosciences) in 20mM HEPES pH 7.0, 50 mM NaCl (Mcl-1), […]
NaCl, 0.1% βME (Bcl-xL) and 25 mM Tris pH 7.5, 150 mM NaCl, 25% Glycerol, 0.1% βME ( Bf l-1). His-tagged Mcl-1 protein was used for TR-FRET assay and HSQC-NMR.
His-TEV cleaved Mcl-1, Bcl-2, Bcl-xL, and Bf l-1 were used in fluorescent polarization and surface plasmon resonance binding assays.
Mutant Mcl-1 protein wa s prepared by the QuikChange site -directed mutagenesi s method (Stratagene) , where Arg263 was mutated to Ala. The R263A expression pla smid was transformed into Rosetta2 DE3 cells and purified by the same method as the wildtype protein. Cultures were grown to an OD 600 of 1. 5 at 37 °C in Terrific Broth, induced with 0. 4 mM IPTG, and express ed overnight at 20 °C. The follow-up purification was performed the same way as was for Mcl-1 wild-type recombinant

[3] = tested on: Bax/Bak double knockout (DKO) MEFs; assay: MEF cell death, propidium iodide flow cytometry; assay type: cell-based, mouse
Protocol: (§1) MEF cells, including wild-type, Bax/Bak double knockout, Bax−/− single knockout, and Bak−/− single knockout were tested and characterized (Supplementary Fig. S3). The cells were cultured in DMEM (Life Technologies), supplemented with 10% fetal bovine serum (FBS) (Thermo Scientific HyClone) and 1% Penicillin/streptomycin solution (Life Technologies). The retrovirally transduced lymphoma cells isolated from Eμ-myc transgenic mice were provided by Ricky W. Johnstone at the University of Melbourne, Melbourne, Australia and cultured as previously described[37],[65].
(§2) MEFs were seeded in 24-well plates at 0.5 × 10^5 cells/well, left to adhere for 5 hours and then treated for 15 hours with increasing concentrations of the compounds. The cells were harvested, washed with phosphate-buffered saline (PBS) and stained with 0.025 mg/ml propidium iodide (MP Biomedicals). The percentage of the propidium iodide positive population was determined by flow cytometry and calculated using WinList 3.0.

wild-type MEFs = assay: MEF cell death, propidium iodide flow cytometry; assay type: cell-based, mouse
Protocol: as §1, §2

[4] = increasing concentrations, 15 h
[5] = 100 µM of hits (15: 10, 20, 30 µM), 15-hour treatment, propidium iodide

SMILES	IC50 (Mcl-1 protein [1])	disruption of BL-Noxa binding to endogenous Mcl-1 (endogenous Mcl-1)	Ki (Mcl-1 protein [2])	IC50 (Mcl-1 protein [2])	cell death in Bax/Bak DKO MEFs [3, 4]	cell death in wild-type MEFs (wild-type MEFs; [4])	cell death induction in Bax/Bak DKO MEFs, screening of hits [3, 5]	cell death induction in wild-type MEFs, screening of hits (wild-type MEFs; [5])
O=C(CSc1nnc(-c2ccco2)c(-c2ccco2)n1)Nc1cccc(C(F)(F)F)c1 [Compound 39]	6.3 ± 0.6 µM	dose-dependent blocking	1.2 ± 0.1 µM	5.1 ± 0.5 µM	rescued the cells	induces Bax/Bak-dependent cell death; also recorded: dose-dependent increase in cell death		
c1ccc(CCCCSc2nnc(-c3ccco3)c(-c3ccco3)n2)cc1 [Compound 44]		dose-dependent blocking	0.3 ± 0.1 µM	1.4 ± 0.2 µM				
O=C(CSc1nnc(-c2ccco2)c(-c2ccco2)n1)Nc1ccccc1 [Compound 19]	13 µM and 13.4 µM		3.2 ± 0.3 µM	13 µM and 13.8 µM			without significant cell death induction	inducing cell death
